Legend:
Settings in all cases: exposure window: 6 hpf to 120 hpf, static, assay age: 120 hpf (5 dpf)
[1] = tested on: Danio rerio larvae (Tropical 5D); test: mean distance moved of exposed larvae, dark phase (µm per frame (1/25 s)); higher = more movement
Method: (§1)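 Larval photomotor response in Tropical 5D wild-type zebrafish. Larvae were statically exposed to each chemical from 6 hpf to 5 dpf in 96-well plates; morphologically abnormal larvae were excluded. At 120 hpf, larvae were tracked with Ethovision XT (25 frames/s) over the 2nd cycle of 3 min light and 3 min dark. Values are the mean movement metric of exposed larvae per phase; same-plate control means (plate-dependent baseline) are given as conditions.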

[2] = tested on: Danio rerio larvae (Tropical 5D); test: mean distance moved of exposed larvae, light phase (µm per frame (1/25 s)); higher = more movement
Method: as §1

[3] = tested on: Danio rerio larvae (Tropical 5D); test: mean angular velocity of exposed larvae, dark phase (angular velocity (unit not stated)); higher = more movement
Method: as §1

[4] = tested on: Danio rerio larvae (Tropical 5D); test: mean angular velocity of exposed larvae, light phase (angular velocity (unit not stated)); higher = more movement
Method: as §1

SMILES: CCN(CCOP(=O)(O)O)S(=O)(=O)C(F)(F)C(F)(F)C(F)(F)C(F)(F)C(F)(F)C(F)(F)C(F)(F)C(F)(F)F
- mean distance moved of exposed larvae ([1]; 0.25 µM): 23.4
- mean distance moved of exposed larvae ([2]; 0.25 µM): 3.01
- mean angular velocity of exposed larvae ([3]; 0.25 µM): 0.809
- mean angular velocity of exposed larvae ([4]; 0.25 µM): 0.169

SMILES: Cc1cccc2c1ccc1ccccc12 [1-Methylphenanthrene]
- mean distance moved of exposed larvae ([1]; 1 µM): 14.6
- mean distance moved of exposed larvae ([1]; 2.54 µM): 16.3
- mean distance moved of exposed larvae ([1]; 6.45 µM): 19.4
- mean distance moved of exposed larvae ([1]; 16.4 µM): 17.5
- mean distance moved of exposed larvae ([1]; 35 µM): 21.2
- mean distance moved of exposed larvae ([1]; 74.8 µM): 12.8
- mean distance moved of exposed larvae ([1]; 100 µM): 10.4
- mean distance moved of exposed larvae ([2]; 1 µM): 5.24
- mean distance moved of exposed larvae ([2]; 2.54 µM): 4.47
- mean distance moved of exposed larvae ([2]; 6.45 µM): 4.85
- mean distance moved of exposed larvae ([2]; 16.4 µM): 5.17
- mean distance moved of exposed larvae ([2]; 35 µM): 4.57
- mean distance moved of exposed larvae ([2]; 74.8 µM): 4.58
- mean distance moved of exposed larvae ([2]; 100 µM): 5.53
- mean angular velocity of exposed larvae ([3]; 1 µM): 0.432
- mean angular velocity of exposed larvae ([3]; 2.54 µM): 0.487
- mean angular velocity of exposed larvae ([3]; 6.45 µM): 0.604
- mean angular velocity of exposed larvae ([3]; 16.4 µM): 0.563
- mean angular velocity of exposed larvae ([3]; 35 µM): 0.642
- mean angular velocity of exposed larvae ([3]; 74.8 µM): 0.39
- mean angular velocity of exposed larvae ([3]; 100 µM): 0.294
- mean angular velocity of exposed larvae ([4]; 1 µM): 0.118
- mean angular velocity of exposed larvae ([4]; 2.54 µM): 0.119
- mean angular velocity of exposed larvae ([4]; 6.45 µM): 0.139
- mean angular velocity of exposed larvae ([4]; 16.4 µM): 0.133
- mean angular velocity of exposed larvae ([4]; 35 µM): 0.126
- mean angular velocity of exposed larvae ([4]; 74.8 µM): 0.12
- mean angular velocity of exposed larvae ([4]; 100 µM): 0.143

SMILES: NC(O)(C(F)(F)F)C(F)(F)F [2-Aminohexafluoropropan-2-ol]
- mean distance moved of exposed larvae ([1]; 0.015 µM): 17.5
- mean distance moved of exposed larvae ([1]; 0.046 µM): 11.4
- mean distance moved of exposed larvae ([1]; 0.14 µM): 13
- mean distance moved of exposed larvae ([1]; 0.41 µM): 13
- mean distance moved of exposed larvae ([1]; 1.23 µM): 6.93
- mean distance moved of exposed larvae ([1]; 3.7 µM): 18.8
- mean distance moved of exposed larvae ([1]; 11.1 µM): 11.2
- mean distance moved of exposed larvae ([1]; 33.3 µM): 18.3
- mean distance moved of exposed larvae ([1]; 66.5 µM): 14.6
- mean distance moved of exposed larvae ([1]; 100 µM): 27.2
- mean distance moved of exposed larvae ([2]; 0.015 µM): 1.1
- mean distance moved of exposed larvae ([2]; 0.046 µM): 0.932
- mean distance moved of exposed larvae ([2]; 0.14 µM): 0.925
- mean distance moved of exposed larvae ([2]; 0.41 µM): 0.917
- mean distance moved of exposed larvae ([2]; 1.23 µM): 0.251
- mean distance moved of exposed larvae ([2]; 3.7 µM): 1.12
- mean distance moved of exposed larvae ([2]; 11.1 µM): 0.717
- mean distance moved of exposed larvae ([2]; 33.3 µM): 1.18
- mean distance moved of exposed larvae ([2]; 66.5 µM): 0.668
- mean distance moved of exposed larvae ([2]; 100 µM): 0.989
- mean angular velocity of exposed larvae ([3]; 0.015 µM): 0.62
- mean angular velocity of exposed larvae ([3]; 0.046 µM): 0.444
- mean angular velocity of exposed larvae ([3]; 0.14 µM): 0.508
- mean angular velocity of exposed larvae ([3]; 0.41 µM): 0.552
- mean angular velocity of exposed larvae ([3]; 1.23 µM): 0.344
- mean angular velocity of exposed larvae ([3]; 3.7 µM): 0.702
- mean angular velocity of exposed larvae ([3]; 11.1 µM): 0.423
- mean angular velocity of exposed larvae ([3]; 33.3 µM): 0.702
- mean angular velocity of exposed larvae ([3]; 66.5 µM): 0.491
- mean angular velocity of exposed larvae ([3]; 100 µM): 0.969
- mean angular velocity of exposed larvae ([4]; 0.015 µM): 0.0444
- mean angular velocity of exposed larvae ([4]; 0.046 µM): 0.0195
- mean angular velocity of exposed larvae ([4]; 0.14 µM): 0.0424
- mean angular velocity of exposed larvae ([4]; 0.41 µM): 0.0293
- mean angular velocity of exposed larvae ([4]; 1.23 µM): 0.00969
- mean angular velocity of exposed larvae ([4]; 3.7 µM): 0.0543
- mean angular velocity of exposed larvae ([4]; 11.1 µM): 0.0181
- mean angular velocity of exposed larvae ([4]; 33.3 µM): 0.0369
- mean angular velocity of exposed larvae ([4]; 66.5 µM): 0.0243
- mean angular velocity of exposed larvae ([4]; 100 µM): 0.0458

SMILES: Cc1ccc2c(ccc3ccccc32)c1 [2-Methylphenanthrene]
- mean distance moved of exposed larvae ([1]; 1 µM): 16.4
- mean distance moved of exposed larvae ([1]; 2.54 µM): 12.1
- mean distance moved of exposed larvae ([1]; 6.45 µM): 15
- mean distance moved of exposed larvae ([1]; 16.4 µM): 15.5
- mean distance moved of exposed larvae ([1]; 35 µM): 16.9
- mean distance moved of exposed larvae ([1]; 74.8 µM): 13.3
- mean distance moved of exposed larvae ([1]; 100 µM): 13.2
- mean distance moved of exposed larvae ([2]; 1 µM): 2.38
- mean distance moved of exposed larvae ([2]; 2.54 µM): 1.4
- mean distance moved of exposed larvae ([2]; 6.45 µM): 1.73
- mean distance moved of exposed larvae ([2]; 16.4 µM): 2.82
- mean distance moved of exposed larvae ([2]; 35 µM): 1.74
- mean distance moved of exposed larvae ([2]; 74.8 µM): 2.4
- mean distance moved of exposed larvae ([2]; 100 µM): 1.83
- mean angular velocity of exposed larvae ([3]; 1 µM): 0.536
- mean angular velocity of exposed larvae ([3]; 2.54 µM): 0.424
- mean angular velocity of exposed larvae ([3]; 6.45 µM): 0.539
- mean angular velocity of exposed larvae ([3]; 16.4 µM): 0.592
- mean angular velocity of exposed larvae ([3]; 35 µM): 0.507
- mean angular velocity of exposed larvae ([3]; 74.8 µM): 0.473
- mean angular velocity of exposed larvae ([3]; 100 µM): 0.439
- mean angular velocity of exposed larvae ([4]; 1 µM): 0.0841
- mean angular velocity of exposed larvae ([4]; 2.54 µM): 0.0709
- mean angular velocity of exposed larvae ([4]; 6.45 µM): 0.0511
- mean angular velocity of exposed larvae ([4]; 16.4 µM): 0.126
- mean angular velocity of exposed larvae ([4]; 35 µM): 0.0754
- mean angular velocity of exposed larvae ([4]; 74.8 µM): 0.0848
- mean angular velocity of exposed larvae ([4]; 100 µM): 0.0583

SMILES: O=C(O)CCC(F)(F)C(F)(F)C(F)(F)C(F)(F)C(F)(F)C(F)(F)C(F)(F)F [3-Perfluoroheptyl propanoic acid]
- mean distance moved of exposed larvae ([1]; 0.25 µM): 12.1
- mean distance moved of exposed larvae ([2]; 0.25 µM): 1.75
- mean angular velocity of exposed larvae ([3]; 0.25 µM): 0.534
- mean angular velocity of exposed larvae ([4]; 0.25 µM): 0.0662

SMILES: O=C(O)CCC(F)(F)C(F)(F)C(F)(F)C(F)(F)C(F)(F)F [3-Perfluoropentyl propanoic acid]
- mean distance moved of exposed larvae ([1]; 0.25 µM): 14.9
- mean distance moved of exposed larvae ([2]; 0.25 µM): 1.49
- mean angular velocity of exposed larvae ([3]; 0.25 µM): 0.61
- mean angular velocity of exposed larvae ([4]; 0.25 µM): 0.0445

SMILES: O=P(O)(O)C(F)(F)C(F)(F)C(F)(F)C(F)(F)C(F)(F)C(F)(F)Cl [6-Chloroperfluorohexylphosphonic acid]
- mean distance moved of exposed larvae ([1]; 0.167 µM): 20.6
- mean distance moved of exposed larvae ([2]; 0.167 µM): 6.62
- mean angular velocity of exposed larvae ([3]; 0.167 µM): 0.789
- mean angular velocity of exposed larvae ([4]; 0.167 µM): 0.212

SMILES: O=P(O)(O)C(F)(F)C(F)(F)C(F)(F)C(F)(F)C(F)(F)C(F)(F)C(F)(F)C(F)(F)Cl [8-Chloroperfluorooctylphosphonic acid]
- mean distance moved of exposed larvae ([1]; 0.167 µM): 24.4
- mean distance moved of exposed larvae ([2]; 0.167 µM): 7.53
- mean angular velocity of exposed larvae ([3]; 0.167 µM): 0.9
- mean angular velocity of exposed larvae ([4]; 0.167 µM): 0.234

SMILES: C[Si](C)(C)C(F)(F)C(F)(F)C(F)(F)F [(Heptafluoropropyl)trimethylsilane]
- mean distance moved of exposed larvae ([1]; 0.015 µM): 13.3
- mean distance moved of exposed larvae ([1]; 0.046 µM): 19.7
- mean distance moved of exposed larvae ([1]; 0.14 µM): 19.1
- mean distance moved of exposed larvae ([1]; 0.41 µM): 16.9
- mean distance moved of exposed larvae ([1]; 1.23 µM): 22.6
- mean distance moved of exposed larvae ([1]; 3.7 µM): 12.9
- mean distance moved of exposed larvae ([1]; 11.1 µM): 18.6
- mean distance moved of exposed larvae ([1]; 33.3 µM): 15.3
- mean distance moved of exposed larvae ([1]; 66.5 µM): 25.7
- mean distance moved of exposed larvae ([1]; 100 µM): 24.3
- mean distance moved of exposed larvae ([2]; 0.015 µM): 1.23
- mean distance moved of exposed larvae ([2]; 0.046 µM): 1.25
- mean distance moved of exposed larvae ([2]; 0.14 µM): 1.98
- mean distance moved of exposed larvae ([2]; 0.41 µM): 1.51
- mean distance moved of exposed larvae ([2]; 1.23 µM): 1.46
- mean distance moved of exposed larvae ([2]; 3.7 µM): 0.916
- mean distance moved of exposed larvae ([2]; 11.1 µM): 2.09
- mean distance moved of exposed larvae ([2]; 33.3 µM): 1.5
- mean distance moved of exposed larvae ([2]; 66.5 µM): 1.57
- mean distance moved of exposed larvae ([2]; 100 µM): 2.09
- mean angular velocity of exposed larvae ([3]; 0.015 µM): 0.571
- mean angular velocity of exposed larvae ([3]; 0.046 µM): 0.779
- mean angular velocity of exposed larvae ([3]; 0.14 µM): 0.81
- mean angular velocity of exposed larvae ([3]; 0.41 µM): 0.637
- mean angular velocity of exposed larvae ([3]; 1.23 µM): 0.884
- mean angular velocity of exposed larvae ([3]; 3.7 µM): 0.521
- mean angular velocity of exposed larvae ([3]; 11.1 µM): 0.685
- mean angular velocity of exposed larvae ([3]; 33.3 µM): 0.594
- mean angular velocity of exposed larvae ([3]; 66.5 µM): 0.949
- mean angular velocity of exposed larvae ([3]; 100 µM): 1.01
- mean angular velocity of exposed larvae ([4]; 0.015 µM): 0.0325
- mean angular velocity of exposed larvae ([4]; 0.046 µM): 0.0534
- mean angular velocity of exposed larvae ([4]; 0.14 µM): 0.0675
- mean angular velocity of exposed larvae ([4]; 0.41 µM): 0.0607
- mean angular velocity of exposed larvae ([4]; 1.23 µM): 0.048
- mean angular velocity of exposed larvae ([4]; 3.7 µM): 0.0422
- mean angular velocity of exposed larvae ([4]; 11.1 µM): 0.0925
- mean angular velocity of exposed larvae ([4]; 33.3 µM): 0.0521
- mean angular velocity of exposed larvae ([4]; 66.5 µM): 0.0503
- mean angular velocity of exposed larvae ([4]; 100 µM): 0.0731

Source: the supplement of paper PMC11414989
